For the experiment, the system named is HTT. As to the kind of experiment: HiBiT protein abundance assay, HTT (K562 HiBiT knock-in). The experiment is classed as cell-based, human. The conditions noted are these: HiBiT knock-in K562 cells, 24 hours, top dose 10 μM. The essentials: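 Steps: seed HiBiT knock-in K562 cells; add compound in 10-point 3-fold series from 10 μM final; incubate 24 h, 37 °C; add lytic HiBiT reagent, shake 5 min, wait 10 min; read luminescence. Normalize to parental K562 and DMSO controls, fit 4PL, take IC50.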
(In general: The HiBiT peptide binds its large partner to form an active luciferase.)
Usually IC50 stands for the concentration that inhibits the measured activity by half. In turn, `Cn1cc2cc(-c3ccc4nc(N5CCC(NC6CC6)C5)ccc4n3)c(O)c(F)c2n1` (racemic) [Compound 287, 5-{6-[3-(cyclopropylamino)pyrrolidin-1-yl]-1,5-naphthyridin-2-yl}-7-fluoro-2-methylindazol-6-ol; trifluoroacetic acid] displayed a half-inhibitory concentration (IC50) of less than 100 nM.

On to `CC(C)N[C@@H]1CCN(c2ccc3nc(-c4cc5cn(C)nc5c(F)c4O)ccc3n2)C1` (single isomer, unassigned) [Compound 285], for which the concentration for half-maximal inhibition (IC50) was less than 100 nM.

In turn, `CC(C)N[C@H]1CCN(c2ccc3nc(-c4cc5cn(C)nc5c(F)c4O)ccc3n2)C1` (single isomer, unassigned) [Compound 286] gave an IC50 of less than 100 nM.

Molecule `Cc1c(O)c(-c2ccc3nc(N4CC[C@@H](NC5CCC5)C4)ccc3n2)cc2cn(C)nc12` (single isomer, unassigned) [Compound 289] returned an IC50 of less than 100 nM.

The molecule `Cc1c(O)c(-c2ccc3nc(N4CC[C@H](NC5CCC5)C4)ccc3n2)cc2cn(C)nc12` (single isomer, unassigned) [Compound 290] showed a half-maximal inhibitory concentration (IC50) of less than 100 nM.

For `Cc1nc2cc(O)c(-c3ccc4nc(N5CCC(NCC6CC6)C5)ccc4n3)cc2o1` (single isomer, unassigned) [Compound 291, 6-(6-{3-[(cyclopropylmethyl)amino]pyrrolidin-1-yl}-1,5-naphthyridin-2-yl)-2-methyl-1,3-benzoxazol-5-ol], the IC50 was less than 100 nM.

In turn, `Cc1nc2cc(O)c(-c3ccc4nc(N5CCC(NCC6CC6)C5)ccc4n3)cc2o1` (single isomer, unassigned) [Compound 292, 6-(6-{3-[(cyclopropylmethyl)amino]pyrrolidin-1-yl}-1,5-naphthyridin-2-yl)-2-methyl-1,3-benzoxazol-5-ol] came in with an IC50 of less than 100 nM.

`Cc1nc2c(C)c(O)c(-c3ccc4nc(N5CC[C@@H](NCC6CC6)C5)ccc4n3)cc2o1` (single isomer, unassigned) [Compound 295] gave an IC50 of less than 100 nM.

As for `Cc1nc2c(C)c(O)c(-c3ccc4nc(N5CC[C@H](NCC6CC6)C5)ccc4n3)cc2o1` (single isomer, unassigned) [Compound 296], the IC50 is less than 100 nM.

Molecule `Cn1cc2cc(-c3ccc4nc(N5CC[C@@H](N[C@H]6C[C@@H](F)C6)C5)ccc4n3)c(O)cc2n1` (single isomer, unassigned) [Compound 300] displayed a 50% inhibitory concentration (IC50) of less than 100 nM.

`Cn1cc2cc(-c3ccc4nc(N5CC[C@@H](NCC6CC6)C5)ccc4n3)c(O)c(F)c2n1` (single isomer, unassigned) [Compound 303] returned an IC50 of less than 100 nM.

Turning to `Cn1cc2cc(-c3ccc4nc(N5CC[C@H](NCC6CC6)C5)ccc4n3)c(O)c(F)c2n1` (single isomer, unassigned) [Compound 304], the IC50 is less than 100 nM.

The molecule `Cn1cc2cc(-c3ccc4nc(N5CC[C@@H](NC6CC6)C5)ccc4n3)c(O)c(F)c2n1` (single isomer, unassigned) [Compound 305] showed an IC50 of less than 100 nM.

Molecule `Cn1cc2cc(-c3ccc4nc(N5CC[C@H](NC6CC6)C5)ccc4n3)c(O)c(F)c2n1` (single isomer, unassigned) [Compound 306] yielded an IC50 of less than 100 nM.

As to `Cc1nc2c(F)c(O)c(-c3ccc4nc(N5CC[C@@H](NC6CCC6)C5)ccc4n3)cc2o1` (single isomer, unassigned) [Compound 307], the half-inhibitory concentration (IC50) was less than 100 nM.

In the case of `Cc1nc2c(F)c(O)c(-c3ccc4nc(N5CC[C@H](NC6CCC6)C5)ccc4n3)cc2o1` (single isomer, unassigned) [Compound 308], the half-maximal inhibitory concentration (IC50) was less than 100 nM.

Turning to `Cc1nc2c(C)c(O)c(-c3ccc4nc(N5CC[C@@H](NC6(C)CC6)C5)ccc4n3)cc2o1` (single isomer, unassigned) [Compound 310], the half-maximal inhibitory concentration (IC50) was less than 100 nM.

In turn, `Cc1nc2c(C)c(O)c(-c3ccc4nc(N5CC[C@H](NC6(C)CC6)C5)ccc4n3)cc2o1` (single isomer, unassigned) [Compound 311] yielded a half-inhibitory concentration (IC50) of less than 100 nM.

`Cc1nc2c(C)c(O)c(-c3ccc4nc(N5CC[C@@H](NC(C)C)C5)ccc4n3)cc2o1` (single isomer, unassigned) [Compound 313] showed an IC50 of less than 100 nM.

As to `Cc1nc2c(C)c(O)c(-c3ccc4nc(N5CC[C@H](NC(C)C)C5)ccc4n3)cc2o1` (single isomer, unassigned) [Compound 314], the IC50 is less than 100 nM.

For the molecule `Cn1cc2cc(-c3ccc4nc(N5CC[C@@H](NC6CCC6)C5)ccc4n3)c(O)c(F)c2n1` (single isomer, unassigned) [Compound 316], the IC50 is less than 100 nM.

`Cn1cc2cc(-c3ccc4nc(N5CC[C@H](NC6CCC6)C5)ccc4n3)c(O)c(F)c2n1` (single isomer, unassigned) [Compound 317] came in with an IC50 of less than 100 nM.

In the case of `Cc1c(O)c(-c2ccc3nc(N4CC[C@@H](NC(C)C)C4)ccc3n2)cc2cn(C)nc12` (single isomer, unassigned) [Compound 319], the IC50 was less than 100 nM.

Regarding `Cc1c(O)c(-c2ccc3nc(N4CC[C@H](NCC5CC5)C4)ccc3n2)cc2cn(C)nc12` (single isomer, unassigned) [Compound 321], the IC50 was less than 100 nM.

Molecule `Cc1c(O)c(-c2ccc3nc(N4CC[C@@H](NCC5CC5)C4)ccc3n2)cc2cn(C)nc12` (single isomer, unassigned) [Compound 322] returned an IC50 of less than 100 nM.

The molecule `Cc1nc2c(F)c(O)c(-c3ccc4nc(N5CC[C@@H](NCC6CC6)C5)ccc4n3)cc2o1` (single isomer, unassigned) [Compound 323] yielded a half-inhibitory concentration (IC50) of less than 100 nM.

With `Cc1nc2c(F)c(O)c(-c3ccc4nc(N5CC[C@H](NCC6CC6)C5)ccc4n3)cc2o1` (single isomer, unassigned) [Compound 324], the IC50 was less than 100 nM.

With `Cc1nc2c(F)c(O)c(-c3ccc4nc(N5CC[C@@H](NC(C)C)C5)ccc4n3)cc2o1` (single isomer, unassigned) [Compound 329], the IC50 is less than 100 nM.

`Cc1nc2c(F)c(O)c(-c3ccc4nc(N5CC[C@H](NC(C)C)C5)ccc4n3)cc2o1` (single isomer, unassigned) [Compound 330] had an IC50 of less than 100 nM.

Regarding `Cn1cc2cc(-c3ccc4nc(N5CC[C@H](N[C@H]6C[C@H](F)C6)C5)ccc4n3)c(O)c(F)c2n1` (single isomer, unassigned) [Compound 347], the IC50 was less than 100 nM.

For the molecule `Cc1nc2cc(O)c(-c3ccc4nc(N5CC[C@@H](N[C@H]6C[C@H](F)C6)C5)ccc4n3)cc2o1` (single isomer, unassigned) [Compound 348], the IC50 was less than 100 nM.

On to `Cn1cc2cc(-c3ccc4nc(N5CC[C@@H](N[C@H]6C[C@H](F)C6)C5)ccc4n3)c(O)c(F)c2n1` (single isomer, unassigned) [Compound 349], for which the IC50 was less than 100 nM.

Take `Cc1nc2c(C)c(O)c(-c3ccc4nc(N5CC[C@H](N[C@H]6C[C@H](F)C6)C5)ccc4n3)cc2o1` (single isomer, unassigned) [Compound 351]: the IC50 was less than 100 nM.

`Cc1nc2c(C)c(O)c(-c3ccc4nc(N5CC[C@@H](N[C@H]6C[C@H](F)C6)C5)ccc4n3)cc2o1` (single isomer, unassigned) [Compound 352] displayed an IC50 of less than 100 nM.

`Cc1nc2c(F)c(O)c(-c3ccc4nc(N5CC[C@@H](NC6(C)CC6)C5)ccc4n3)cc2o1` (stereo in doubt) [Compound 326, 4-fluoro-2-methyl-6-{6-[(3 S)-3-[(1-methylcyclopropyl)amino]pyrrolidin-1-yl]-1,5-naphthyridin-2-yl}-1,3-benzoxazol-5-ol] showed an IC50 of less than 100 nM.

For `Cc1nc2c(F)c(O)c(-c3ccc4nc(N5CCC(NC6(C)CC6)C5)ccc4n3)cc2o1` (stereo in doubt) [Compound 327, 4-fluoro-2-methyl-6-{6-[(3R)-3-[(1-methylcyclopropyl)amino]pyrrolidin-1-yl]-1,5-naphthyridin-2-yl}-1,3-benzoxazol-5-ol], the IC50 was less than 100 nM.

On to `Cc1nc2c(C)c(O)c(-c3ccc4nc(N5CC[C@H](NC(C)(C)C)C5)ccc4n3)cc2o1` [Compound 214], for which the IC50 is less than 100 nM.

Turning to `Cc1nc2c(C)c(O)c(-c3ccc4nc(N5CC[C@H](NC6CC6)C5)ccc4n3)cc2o1` [Compound 216], the IC50 is less than 100 nM.

Turning to `Cc1nc2c(C)c(O)c(-c3ccc4nc(N5CC[C@@H](NC6CC6)C5)ccc4n3)cc2o1` [Compound 217], the 50% inhibitory concentration (IC50) was less than 100 nM.

As to `Cn1cc2cc(-c3ccc4nc(N5CCC(NC6(C)CC6)C5)ccc4n3)c(O)cc2n1` (stereo not drawn) [Compound 219], the IC50 is less than 100 nM.

`Cc1nc2cc(O)c(-c3ccc4nc(N5CC[C@@H](NC6CCC6)C5)ccc4n3)cc2o1` [Compound 229] returned an IC50 of less than 100 nM.

In turn, `Cc1nc2cc(O)c(-c3ccc4nc(N5CC[C@H](NC6CCC6)C5)ccc4n3)cc2o1` [Compound 230] had a 50% inhibitory concentration (IC50) of less than 100 nM.

The molecule `Cc1nc2cc(O)c(-c3ccc4nc(N5CCC(NC(C)C)C5)ccc4n3)cc2o1` (stereo not drawn) [Compound 231] displayed an IC50 of less than 100 nM.

As for `Cc1nc2c(C)c(O)c(-c3ccc4nc(N5CCC(NC6CCC6)C5)ccc4n3)cc2o1` (stereo not drawn) [Compound 235], the 50% inhibitory concentration (IC50) was less than 100 nM.

In turn, `Cc1nc2c(C)c(O)c(-c3ccc4nc(N5CC[C@@H](NC6CCC6)C5)ccc4n3)cc2o1` [Compound 236] displayed an IC50 of less than 100 nM.

The molecule `Cc1nc2c(C)c(O)c(-c3ccc4nc(N5CC[C@H](NC6CCC6)C5)ccc4n3)cc2o1` [Compound 237] returned a 50% inhibitory concentration (IC50) of less than 100 nM.

`Cc1cc(-c2ccc3nc(N4CCC(NC(C)(C)C)C4)ccc3n2)nc2cn(C)nc12` (stereo not drawn) [Compound 248] registered an IC50 of 100 to 1000 nM.

Molecule `Cc1c(O)c(-c2ccc3nc(N4CC[C@@H](NC(C)(C)C)C4)ccc3n2)cc2cn(C)nc12` [Compound 249] had an IC50 of less than 100 nM.

`Cc1c(O)c(-c2ccc3nc(N4CC[C@H](NC(C)(C)C)C4)ccc3n2)cc2cn(C)nc12` [Compound 250] had a 50% inhibitory concentration (IC50) of less than 100 nM.

On to `COc1c(-c2ccc3nc(N4CCC(NC(C)(C)C)C4)ccc3n2)cc2c[nH]nc2c1C` (stereo not drawn) [Compound 251], for which the IC50 is more than 10000 nM.

Molecule `Cc1cn2nc(-c3ccc4nc(N5CCC(NC6CC6)C5)ccc4n3)c(O)c2c(C)n1` (stereo not drawn) [Compound 252] showed an IC50 of 100 to 1000 nM.
